Assay results reported in ChEMBL document CHEMBL1201862, “PubChem BioAssay data set” (2004).
Activity calls are given as the source filed them.

Tests used:
[1] = cells
[2] = viability of uninfected HEp-2 cells – cell-based, HTS, cytotoxicity control for RSV inhibitor project, dose response (AID 2410); type: functional; settings: human respiratory syncytial virus
[3] = biological target: Voltage-dependent T-type calcium channel subunit alpha-1H (Homo sapiens, UniProt O95180); type: functional;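 also: channel activity triggered by adding a high calcium stimulation buffer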
[4] = biological target: T1, Probable nicotinate-nucleotide adenylyltransferase (Staphylococcus aureus (strain N315), UniProt P65502); type: functional, Staphylococcus aureus subsp. aureus N315; settings: read-out: IC50_Mean;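 as to IC50 Mean: confirmatory dose-response retesting of NadD inhibitor hits first found in an ultra-high-throughput screen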
[5] = biological target: T1, Probable nicotinate-nucleotide adenylyltransferase; type: functional, Staphylococcus aureus subsp. aureus N315
[6] = decrease of insulin promoter-GFP reporter – imaging, high-content screening, mouse beta cells (AID 1628); type: functional; settings: MIN6
[7] = MIN6 cell viability loss – mouse insulinoma, cytotoxicity control, dose response (AID 2122); type: functional;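 also: confirmatory high-throughput counterscreen run to flag cytotoxic compounds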
[8] = tested on: Vero; test: viability of Vero cells under compound – cytotoxicity control for flavivirus capping enzyme inhibitors (AID 588742); type: functional; settings: Chlorocebus sabaeus
[9] = biological target: T2, Nuclear receptor subfamily 0 group B member 1 (Homo sapiens, UniProt P51843); test: Luminescence-based cell-based high throughput dose response assay for inhibitors of the orphan nuclear receptor subfamily 0, group B, member 1 (DAX1; NR0B1). [Related pubchem assays (depositor defined):AID504766, AID504790]; type: functional
T2 sequence (P51843 whole entry): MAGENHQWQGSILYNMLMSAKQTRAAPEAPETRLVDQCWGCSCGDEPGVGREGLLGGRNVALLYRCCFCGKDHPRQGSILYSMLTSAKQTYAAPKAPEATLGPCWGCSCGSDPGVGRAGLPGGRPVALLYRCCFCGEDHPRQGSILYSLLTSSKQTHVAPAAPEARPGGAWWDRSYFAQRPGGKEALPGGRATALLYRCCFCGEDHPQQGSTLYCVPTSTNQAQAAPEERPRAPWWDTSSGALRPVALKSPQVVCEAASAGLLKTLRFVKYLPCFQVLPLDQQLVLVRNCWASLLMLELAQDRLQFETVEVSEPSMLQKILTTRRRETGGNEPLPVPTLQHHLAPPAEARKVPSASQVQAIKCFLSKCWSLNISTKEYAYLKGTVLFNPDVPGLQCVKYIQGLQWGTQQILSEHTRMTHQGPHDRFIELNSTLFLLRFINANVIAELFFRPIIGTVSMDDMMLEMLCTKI

[10] = tested on: HEK293; test: cells; type: functional, cell-based; settings: Homo sapiens
[11] = HEK-293T viability loss after treatment – luminescence, T-cell screen hits, cytotoxicity control for TCR NF-kB inhibitor project, dose response (AID 489026); type: functional, cell-based;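 also: cells exposed to compound about 14 hours before the viability readout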
[12] = biological target: T3, Estrogen receptor beta (Homo sapiens, UniProt Q92731);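 also: recombinant ER-beta bound to coactivator SRC1 peptide in presence of estradiol agonist; inhibitors block coactivator peptide binding and lower the FRET signal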
[13] = biological target: T4, Estrogen receptor (Homo sapiens, UniProt P03372);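 also: potency for inhibiting coactivator peptide recruitment to the receptor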
T4 sequence (P03372 whole entry): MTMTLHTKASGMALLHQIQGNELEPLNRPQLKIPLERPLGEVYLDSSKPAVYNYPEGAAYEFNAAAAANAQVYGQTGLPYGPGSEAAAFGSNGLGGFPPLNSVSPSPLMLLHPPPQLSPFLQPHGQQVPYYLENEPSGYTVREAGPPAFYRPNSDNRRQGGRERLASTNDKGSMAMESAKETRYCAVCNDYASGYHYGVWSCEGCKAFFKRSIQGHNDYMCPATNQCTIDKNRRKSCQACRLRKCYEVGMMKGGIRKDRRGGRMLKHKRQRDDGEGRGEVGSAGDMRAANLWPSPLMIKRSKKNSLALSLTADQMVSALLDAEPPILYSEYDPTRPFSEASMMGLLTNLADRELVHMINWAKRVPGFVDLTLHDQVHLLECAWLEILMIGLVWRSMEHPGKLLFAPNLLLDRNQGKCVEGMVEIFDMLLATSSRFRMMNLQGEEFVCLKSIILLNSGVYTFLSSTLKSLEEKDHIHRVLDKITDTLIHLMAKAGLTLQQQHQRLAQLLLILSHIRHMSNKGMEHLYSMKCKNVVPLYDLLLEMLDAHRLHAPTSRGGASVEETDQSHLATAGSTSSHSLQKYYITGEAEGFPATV

[14] = biological target: T3, Estrogen receptor beta; test: blockers of SRC-3 recruitment to ERβ – biochemical, ELISA, streptavidin-HRP readout, orthogonal assay, confirmation (AID 1060)
[15] = tested on: Vero; test: cells; type: functional; settings: Chlorocebus sabaeus
[16] = tested on: Vero; test: cells; type: functional, cell-based; settings: Chlorocebus sabaeus
[17] = NIH3T3 cell viability loss – ATP luminescence, mouse fibroblasts, counter-screen, dose response (AID 2010); type: functional, cell-based;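 also: cells exposed to compound for about 90 hours before reading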
[18] = Trypanosoma cruzi growth suppression in host cells – NIH3T3 host cells, beta-gal luminescence, confirmation (AID 2044); type: functional, cell-based;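 also: intracellular parasites grown in NIH/3T3 mouse fibroblasts as host cells; luminescent beta-galactosidase reporter signal from transgenic T. cruzi replicating inside host cells; inhibitors lower the luminescence signal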
[19] = biological target: T5, RNA-binding protein pos-1 (Caenorhabditis elegans, UniProt G5EF15); test: disruptors of C. elegans POS-1 RNA interaction – biochemical, fluorescence polarization, dose response (AID 1964);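 also: purified POS-1 fused to maltose binding protein made in E. coli; potency of compounds blocking POS-1 binding to fluorescent RNA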
T5 sequence (G5EF15 whole entry): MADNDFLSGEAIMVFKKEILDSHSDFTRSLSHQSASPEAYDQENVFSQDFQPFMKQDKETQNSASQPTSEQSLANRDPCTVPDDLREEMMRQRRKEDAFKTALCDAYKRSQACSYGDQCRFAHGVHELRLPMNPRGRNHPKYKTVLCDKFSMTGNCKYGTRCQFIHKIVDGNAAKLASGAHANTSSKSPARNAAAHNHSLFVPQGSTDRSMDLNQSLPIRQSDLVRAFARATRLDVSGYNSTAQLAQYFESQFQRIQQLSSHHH

[20] = biological target: T6, Zinc finger protein mex-5 (Caenorhabditis elegans, UniProt Q9XUB2); test: potency of MEX-5 RNA-binding blockers – biochemical, C. elegans, fluorescence polarization, dose response (AID 1960)
T6 sequence (Q9XUB2 whole entry): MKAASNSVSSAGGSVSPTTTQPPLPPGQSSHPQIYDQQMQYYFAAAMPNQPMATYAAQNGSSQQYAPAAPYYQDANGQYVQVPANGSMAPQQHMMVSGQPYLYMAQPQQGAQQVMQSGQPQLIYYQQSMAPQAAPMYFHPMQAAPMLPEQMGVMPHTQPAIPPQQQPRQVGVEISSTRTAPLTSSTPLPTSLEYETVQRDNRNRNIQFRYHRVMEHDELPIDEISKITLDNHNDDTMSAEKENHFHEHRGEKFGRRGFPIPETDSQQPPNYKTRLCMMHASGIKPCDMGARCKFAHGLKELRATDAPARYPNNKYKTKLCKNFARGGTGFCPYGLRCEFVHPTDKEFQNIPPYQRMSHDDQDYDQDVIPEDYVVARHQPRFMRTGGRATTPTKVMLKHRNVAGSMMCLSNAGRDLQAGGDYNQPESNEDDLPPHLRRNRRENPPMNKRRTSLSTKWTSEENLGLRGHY

[21] = biological target: G-protein coupled receptor 55 (Homo sapiens, UniProt Q9Y2T6); test: inhibition of LPI-stimulated GPR55 beta-arrestin translocation – imaging, U2OS, beta-arrestin-GFP, LPI agonist, primary screen (AID 2013); type: functional;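 also: antagonist potency measured as reduced agonist-driven arrestin aggregation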
[22] = tested on: Streptococcus sp. 'group A'; test: Streptococcus pyogenes SK(-)GAS viability under kanamycin – luminescence, BacTiterGlo, confirmation, counter-screen for streptokinase expression inhibitor project, dose response (AID 1900); type: functional, organism-based
[23] = cells; type: functional, cell-based
[24] = cells; type: functional, cell-based; remark: listed apart in the source
[25] = Luminescence-based counterscreen assay for KLF5 inhibitors: dose response cell-based high throughput screening assay to identify cytotoxic compounds using the IEC-6 intestinal epithelial cell line. [Related pubchem assays: 1700 (Primary screen.), 1834 (Confirmation screen.), 1858 (Summary AID.), 1905 (Counterscreen.)]; type: functional
[26] = tested on: Streptococcus; test: GAS UMAA2166 growth inhibition – luminescence, BacTiterGlo, counter-screen for streptokinase expression inhibitor project, dose response (AID 1915); type: functional, organism-based;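 also: potency for reduction of bacterial viability or growth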
[27] = NIH-3T3 fibroblast cytotoxicity, dose response, cytotoxicity control, cell-based, fluorescence, Alamar Blue, secondary assay (AID 2327); type: functional;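 also: NIH-3T3 mouse fibroblasts cultured with fluconazole at 8 µg/mL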
[28] = tested on: INS1; test: INS-1E survival protection against cytokine death – cell-based, luminescence, retest, dose response (AID 449756); type: functional; settings: Rattus norvegicus;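 also: cell death triggered by IL-1 beta plus TNF-alpha plus IFN-gamma mixture; protective hits raise ATP signal compared with cytokine alone wells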
[29] = fluconazole-exposed Candida albicans growth modulators – fluorescence, retest, confirmation (AID 2467); type: functional, cell-based
[30] = biological target: Protein Wnt-3a (Mus musculus, UniProt P27467); test: antagonism of Wnt3a pathway luciferase reporter – Wnt-LIGHT cells, luminescence, selectivity assay for Gli-SUFU antagonist project, dose response (AID 651570); type: functional; settings: read-out: IC50_Mean;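 also: Wnt-LIGHT reporter cells stimulated with conditioned medium from Wnt3a-producing cells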
Protein Wnt-3a, sequence (P27467 whole entry): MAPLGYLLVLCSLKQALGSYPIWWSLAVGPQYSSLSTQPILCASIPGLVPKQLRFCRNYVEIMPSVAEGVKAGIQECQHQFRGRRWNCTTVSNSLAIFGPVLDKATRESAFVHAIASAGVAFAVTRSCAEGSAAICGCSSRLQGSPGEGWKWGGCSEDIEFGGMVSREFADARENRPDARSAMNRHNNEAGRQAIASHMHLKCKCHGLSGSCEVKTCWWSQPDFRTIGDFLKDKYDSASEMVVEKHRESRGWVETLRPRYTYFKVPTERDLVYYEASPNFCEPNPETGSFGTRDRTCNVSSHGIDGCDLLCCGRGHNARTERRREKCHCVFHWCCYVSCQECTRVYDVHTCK

Voltage-dependent T-type calcium channel subunit alpha-1H, sequence (O95180 whole entry): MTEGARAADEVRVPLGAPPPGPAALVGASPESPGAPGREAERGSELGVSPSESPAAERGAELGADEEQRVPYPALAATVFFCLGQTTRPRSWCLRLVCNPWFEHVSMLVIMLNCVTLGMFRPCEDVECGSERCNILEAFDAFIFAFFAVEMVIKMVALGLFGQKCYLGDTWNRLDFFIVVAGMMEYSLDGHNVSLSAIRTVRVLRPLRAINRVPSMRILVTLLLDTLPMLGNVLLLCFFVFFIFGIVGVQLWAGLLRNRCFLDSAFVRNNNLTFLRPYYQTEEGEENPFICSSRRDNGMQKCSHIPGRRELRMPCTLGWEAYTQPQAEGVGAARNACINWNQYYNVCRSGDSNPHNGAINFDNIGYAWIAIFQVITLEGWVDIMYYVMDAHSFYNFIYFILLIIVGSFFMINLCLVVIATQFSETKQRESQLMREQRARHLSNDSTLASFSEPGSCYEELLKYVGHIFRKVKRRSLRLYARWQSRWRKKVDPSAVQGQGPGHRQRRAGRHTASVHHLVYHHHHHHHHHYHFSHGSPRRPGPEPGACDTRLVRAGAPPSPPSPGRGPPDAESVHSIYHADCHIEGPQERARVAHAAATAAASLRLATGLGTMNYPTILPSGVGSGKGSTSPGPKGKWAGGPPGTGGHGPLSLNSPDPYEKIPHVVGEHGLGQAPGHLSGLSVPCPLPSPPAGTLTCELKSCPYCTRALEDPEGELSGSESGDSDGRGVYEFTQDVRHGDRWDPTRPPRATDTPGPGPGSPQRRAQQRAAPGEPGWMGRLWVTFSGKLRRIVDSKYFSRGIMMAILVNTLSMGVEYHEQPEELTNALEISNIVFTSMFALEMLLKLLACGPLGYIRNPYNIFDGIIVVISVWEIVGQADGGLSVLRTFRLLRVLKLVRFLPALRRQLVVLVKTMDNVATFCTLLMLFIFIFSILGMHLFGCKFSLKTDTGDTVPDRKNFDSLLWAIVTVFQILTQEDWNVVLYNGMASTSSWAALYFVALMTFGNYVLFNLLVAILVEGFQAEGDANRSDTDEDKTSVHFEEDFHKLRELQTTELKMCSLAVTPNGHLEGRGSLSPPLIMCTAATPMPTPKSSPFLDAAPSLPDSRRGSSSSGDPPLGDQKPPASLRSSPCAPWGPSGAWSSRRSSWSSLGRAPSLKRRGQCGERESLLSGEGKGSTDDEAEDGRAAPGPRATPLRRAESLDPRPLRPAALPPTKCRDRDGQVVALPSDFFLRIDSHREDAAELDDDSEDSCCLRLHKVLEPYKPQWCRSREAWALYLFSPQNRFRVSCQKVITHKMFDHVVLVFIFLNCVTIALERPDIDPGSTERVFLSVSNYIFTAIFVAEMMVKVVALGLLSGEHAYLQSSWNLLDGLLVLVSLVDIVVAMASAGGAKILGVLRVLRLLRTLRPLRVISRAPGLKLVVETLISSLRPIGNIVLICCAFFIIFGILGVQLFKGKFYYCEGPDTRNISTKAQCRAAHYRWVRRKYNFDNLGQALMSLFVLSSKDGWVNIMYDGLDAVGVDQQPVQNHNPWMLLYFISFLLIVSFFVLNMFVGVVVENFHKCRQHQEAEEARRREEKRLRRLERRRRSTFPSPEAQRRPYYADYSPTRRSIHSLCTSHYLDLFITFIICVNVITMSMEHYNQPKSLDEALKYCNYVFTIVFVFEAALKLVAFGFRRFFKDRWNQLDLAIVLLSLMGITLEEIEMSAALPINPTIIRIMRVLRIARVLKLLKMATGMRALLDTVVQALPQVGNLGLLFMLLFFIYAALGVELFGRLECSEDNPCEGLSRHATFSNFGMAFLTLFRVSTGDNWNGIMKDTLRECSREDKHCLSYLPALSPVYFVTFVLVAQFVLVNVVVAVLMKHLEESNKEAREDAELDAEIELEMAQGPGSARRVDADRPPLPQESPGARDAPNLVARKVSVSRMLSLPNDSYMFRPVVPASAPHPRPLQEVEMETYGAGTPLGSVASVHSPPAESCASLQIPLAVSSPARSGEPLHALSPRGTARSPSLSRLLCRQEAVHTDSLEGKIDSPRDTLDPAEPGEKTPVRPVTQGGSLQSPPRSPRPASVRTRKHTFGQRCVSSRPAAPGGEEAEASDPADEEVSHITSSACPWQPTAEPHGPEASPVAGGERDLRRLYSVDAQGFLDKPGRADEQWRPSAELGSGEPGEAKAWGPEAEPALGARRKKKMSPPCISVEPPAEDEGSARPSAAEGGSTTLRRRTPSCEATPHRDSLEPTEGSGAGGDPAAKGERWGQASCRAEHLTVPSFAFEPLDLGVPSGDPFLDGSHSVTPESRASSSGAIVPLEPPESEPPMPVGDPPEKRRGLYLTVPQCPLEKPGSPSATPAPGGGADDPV
G-protein coupled receptor 55, sequence (Q9Y2T6 whole entry): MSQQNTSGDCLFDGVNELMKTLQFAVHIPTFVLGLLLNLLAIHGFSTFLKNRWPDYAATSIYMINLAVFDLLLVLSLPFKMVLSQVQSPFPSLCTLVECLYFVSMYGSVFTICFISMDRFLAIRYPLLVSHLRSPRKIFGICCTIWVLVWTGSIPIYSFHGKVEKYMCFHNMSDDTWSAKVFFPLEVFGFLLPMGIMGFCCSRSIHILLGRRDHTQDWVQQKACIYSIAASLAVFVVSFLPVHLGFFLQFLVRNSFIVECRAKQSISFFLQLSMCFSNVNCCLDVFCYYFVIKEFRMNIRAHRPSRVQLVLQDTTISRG
T1 sequence (P65502 whole entry): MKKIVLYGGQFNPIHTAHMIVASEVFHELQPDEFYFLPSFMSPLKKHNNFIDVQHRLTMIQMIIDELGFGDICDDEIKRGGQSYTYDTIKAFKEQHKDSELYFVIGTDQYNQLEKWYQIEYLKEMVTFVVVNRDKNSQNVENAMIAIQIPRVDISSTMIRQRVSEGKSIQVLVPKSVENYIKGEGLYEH
T3 sequence (Q92731 whole entry): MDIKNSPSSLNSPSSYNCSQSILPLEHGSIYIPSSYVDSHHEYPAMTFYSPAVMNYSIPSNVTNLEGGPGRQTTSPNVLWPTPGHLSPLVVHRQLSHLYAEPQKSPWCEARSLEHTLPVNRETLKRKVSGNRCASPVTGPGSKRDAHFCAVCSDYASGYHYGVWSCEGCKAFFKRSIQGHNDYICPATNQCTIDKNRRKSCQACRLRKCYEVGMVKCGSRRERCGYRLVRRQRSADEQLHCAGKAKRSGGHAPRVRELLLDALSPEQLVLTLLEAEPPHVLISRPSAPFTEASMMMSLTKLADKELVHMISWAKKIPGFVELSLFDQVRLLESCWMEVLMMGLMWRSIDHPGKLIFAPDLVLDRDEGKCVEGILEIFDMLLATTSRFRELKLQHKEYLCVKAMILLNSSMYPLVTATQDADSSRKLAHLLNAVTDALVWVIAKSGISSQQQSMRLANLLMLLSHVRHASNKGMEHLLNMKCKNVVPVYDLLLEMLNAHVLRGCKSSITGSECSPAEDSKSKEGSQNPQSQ

SMILES: O=C(CNC(=O)c1cccs1)N=Nc1c(O)[nH]c2ccc([N+](=O)[O-])cc12
- IC50 [1]: 14.6 µM (active)
- CC50 [2]: > 50 µM (active)

SMILES: Cc1ccc(-n2nc3c(c2NC(=O)c2cccs2)CSC3)cc1
- EC50 [3]: 0.558 µM (active)
- IC50 [4]: 16.2 µM (active)
- IC50 [5]: 6.35 µM (active)

SMILES: COC(=O)c1[nH]c2ccccc2c1NC(=O)CN1CCCCCC1
- IC50 [6]: 3.51 µM (active)
- IC50 [7]: 2.63 µM (active)

SMILES: COc1ccc(CSc2nnc(NC(C)=O)s2)cc1[N+](=O)[O-]
- CC50 [8]: > 40 µM (active)

SMILES: COc1ccccc1N1CCN(S(=O)(=O)c2cc(C(F)(F)F)cc(C(F)(F)F)c2)CC1
- IC50 [9]: > 67.5 µM (inactive)
- IC50 [10]: > 67.5 µM (inactive)

SMILES: O=C(Nc1nc2ccc(S(=O)(=O)N3CCCC3)cc2s1)C1CCCCC1
- IC50 [11]: > 80 µM (inactive)

SMILES: Cc1ccc(-n2c(=O)c(C#N)cc3c(=O)n4cccc(C)c4nc32)cc1
- IC50 [12]: 25.4 µM (active)
- IC50 [13]: 30.9 µM (not active)
- IC50 [14]: < 77 µM (not active)

SMILES: CCOCCCNc1[nH]cnc2c3ccccc3nc1-2
- IC50 [6]: 2.76 µM (active)
- IC50 [7]: 2.31 µM (active)

SMILES: CC1=Nc2cc(C(=O)N3CCCC3)ccc2Sc2c(C)ccc(C)c21
- CC50 [15]: 16.9 µM (active)
- IC50 [1]: 3.34 µM (active)
- IC50 [16]: 8.21 µM (active)
- CC50 [2]: 7.28 µM (active)

SMILES: O=C(CN1C(=O)NC2(CCCC2)C1=O)NCC1CCCO1 (stereo unspecified)
- IC50 [9]: > 67.5 µM (inactive)
- IC50 [10]: > 67.5 µM (inactive)

SMILES: CN1CCN(S(=O)(=O)c2cccc(C(=O)Nc3sc4c(c3-c3nc5ccccc5[nH]3)CCCC4)c2)CC1
- EC50 [17]: > 60 µM (not active)
- EC50 [18]: 1.67 µM (active)
- CC50 [8]: > 40 µM (active)

SMILES: COc1ccccc1NC(=O)N1CCc2[nH]c3ccc(F)cc3c2C1
- EC50 [3]: 5.47 µM (active)
- CC50 [2]: > 50 µM (active)

SMILES: CCn1c(SCc2ccc(C)cc2)nnc1C1CCN(S(=O)(=O)c2ccc(OC)cc2)CC1
- EC50 [19]: > 300 µM (not active)
- EC50 [3]: 6.41 µM (active)
- EC50 [20]: > 300 µM (not active)

SMILES: Brc1ccc2c(c1)C(C1=NCCN1)c1ccccc1CS2 (stereo unspecified)
- IC50 [11]: > 80 µM (inactive)

SMILES: Cc1nn(Cc2ccccc2Cl)c(C)c1C(=O)Nc1nnc(C2CC2)s1
- CC50 [15]: > 25 µM (active)
- IC50 [1]: 3.75 µM (active)
- IC50 [16]: 5.21 µM (active)
- CC50 [2]: 7.49 µM (active)

SMILES: COc1ccc(OC)c(N2C(=O)NC(=O)/C(=C/c3c(C)[nH]c4ccccc34)C2=O)c1
- IC50 [21]: < 0.5 µM (active)

SMILES: COc1ccc(N2C(=O)NC(=O)/C(=C\c3cn(CC(=O)N4CCOCC4)c4ccccc34)C2=O)c(OC)c1
- EC50 [19]: > 300 µM (not active)
- EC50 [20]: > 300 µM (not active)
- IC50 [21]: 1.59 µM (active)

SMILES: O=C(CSc1nnc(Cc2cc(O)nc(O)n2)n1-c1ccc(F)cc1)N1CCCCC1
- IC50 [9]: > 67.6 µM (inactive)
- IC50 [10]: > 67.6 µM (inactive)

SMILES: COc1ccc(OC)c2[nH]c(C(=O)N/N=C/c3ccccc3O)cc12
- EC50 [22]: 1.96 µM (active)
- EC50 [23]: > 350 µM (not active)
- EC50 [24]: 12.2 µM (active)
- IC50 [25]: 12.5 µM (not active)
- EC50 [26]: 2.37 µM (active)
- EC50 [27]: > 160 µM (inactive)
- AC50 [28]: 2.12 µM (active)
- EC50 [29]: 1.86 µM (active)

SMILES: CC1CCN(Cc2c(C(=O)N/N=C/c3ccccc3O)nnn2-c2nonc2N)CC1
- EC50 [23]: > 350 µM (not active)
- EC50 [24]: 29.5 µM (active)
- IC50 [25]: 4.81 µM (active)
- IC50 [30]: 20.8 µM (inactive)
- AC50 [28]: 0.9 µM (active)

SMILES: Cc1[nH]n(C2=NCCS2)c(=O)c1N=Nc1cccc(C(F)(F)F)c1
- EC50 [17]: > 60 µM (not active)
- IC50 [6]: 1.75 µM (active)
- EC50 [18]: 0.669 µM (active)
- AC50 [28]: 2.5 µM (active)
- IC50 [7]: 2.2 µM (active)

SMILES: Cn1c(-c2ccccc2)c(/C=N/NC(=O)c2ccc(O)cc2)c2ccccc21
- IC50 [9]: > 67.5 µM (inactive)
- IC50 [10]: > 67.5 µM (inactive)
